Source: US20260306599A1, “TIMP3-DERIVED TEIPP NEOANTIGENS AND USES THEREOF” (priority 2023, published 2026)
Residues, ends and D or L forms follow the SMILES beside them. No end group written: not given here.

Key:
[1] = tested on: p124-specific CD8 T cells; assay: Cross-presentation of synthetic long peptides by monocyte-derived dendritic cells to p124-specific CD8 T cells; assay type: cell-based, human; conditions: moDC loaded with 10 μM SLP; for T cell activation by cross-presented synthetic long peptide (wild type epitope): FIG. 7; for cross-presentation of synthetic long peptide (V-variant epitope): FIG. 8
Method: HLA-A*02:01 positive PBMCs were isolated from buffy-coats from consented donors (Sanquin bloodbank, Amsterdam), using a gradient ficoll layer. PBMCs were incubated with anti-CD14 magnetic beads for 20 min at 4° C. and the CD14 positive monocytes were isolated using magnetic separation columns (miltenyi). CD14+ monocyte were cultured in RPMI medium supplemented with 10% FCS, GM-CSF (800 units/ml), and IL-4 (500 units/ml) for 6 days to generate immature monocyte-derived dendritic cells. On day 6, the immature moDCs were incubated with synthetic long peptide (10 μM, Genscript) for 2h, followed by overnight incubation with LPS (20 ng/ml). Matured and loaded moDCs (30,000 cells) were washed and co-cultured with previously established tetramer positive T cells (50,000 cells) for 16 h. Direct presentation of synthetic long peptides was tested by continuous incubation with TIMP3-specific CD8 T cell bulk for 16 h in the absence of moDC. Cytokine release by T cells was then measured in supernatants by ELISA.
The synthetic long peptide (SLP) platform is highly immunogenic and successfully applied in therapeutic SLP vaccination for HPV-induced cancers (Kenter et al. 2009; van Poelgeest et al. 2016). Therefore, the inventors examined the efficiency of cross-presentation of long versions of the TIMP3-derived signal peptide SLGDWGAEA (SEQ ID NO: 2) in dendritic cells, using natural flanking amino acids extending the amino-terminus, the carboxy-terminus, or both ends (Table 3). Monocyte-derived dendritic cells (moDC) were incubated with these three SLPs (P124 long 1-3; SEQ ID NOs: 22-24), then matured, and used as targets for the p124-specific CD8 T cell culture to assess correct processing and HLA-A2 presentation of the minimal TEIPP epitope. Despite the fact that the c-terminus was an alanine, the TIMP3-derived signal peptide SLGDWGAEA (SEQ ID NO: 2) was cross-presented by DCs from a longer peptide to p124-specific CD8 T cells (FIG. 7).
Therefore, the cross-presentation of the V-variant was evaluated as synthetic long peptide extended with natural flanking amino acids (Table 3). After uptake and processing of the five different variants (P124 long V1-3, V1-4, V1-6, V2 and V3; SEQ ID NOs: 25, 110, 111, 26 and 27), moDCs were co-cultured with the p124-specific T cell cultures and cytokine production was measured (FIG. 8). […] The lack of recognition of DCs not loaded with peptide reiterates that moDCs, despite the high expression of TIMP3 (FIG. 4), are not recognized.

TAP-negative tumor cells = assay: Preferential recognition of TAP-negative over TAP-positive tumor cells by peptide-stimulated T cell cultures (TEIPP screen); assay type: cell-based, human; conditions: TAP-negative vs TAP-positive tumor cells
Method: TCR-transduced or bulk-cultured TEIPP T cells were tested for their ability to selectively recognize the indicated TEIPP epitope presented on TAP impaired tumors by co-culturing them for 18 hours with wild-type (wt), TAP-KO and/or TAP/TIMP3-KO tumor cells at a 5-to-1 target-to-T cell ratio, after which supernatants were harvested and analyzed for cytokine production by GM-CSF, CCL4 and/or IFNg ELISA. Unstimulated and peptide-stimulated T cells were used as negative and positive controls. For some experiments, also endogenous TEIPP antigen-expressing healthy cells such as Epstein-Barr virus (EBV) transformed B-cells, monocytes or monocyte-derived dendritic cells were included as additional controls. Test were performed in triplo in 96 well round bottom plates at 1:1 target to effector ratio.
36 peptides (designated 101 to 136) were selected for their capacity to activate CD8+ T cells present in peripheral blood mononuclear cells (PBMC) of maximal 5 healthy donors, following the protocol described earlier (Marnjt et al., 2018). […] After an in vitro expansion and enrichment of the responding T cell cultures, 18 of the 21 cases could be tested for their capacity to preferentially recognize TAP-negative tumor cells over TAP-positive tumor cells. […] These cultures were stimulated with peptide 105, 113, or 124. […]

[2] = tested on: CD8+ T cells present in peripheral blood mononuclear cells (PBMC); assay: In vitro expansion of peptide multimer-positive CD8+ T cells from PBMC of healthy donors; assay type: cell-based, human
Method: Buffy coats from healthy donors were obtained from Sanquin (Sanquin blood facility). Informed consent was given in writing by all participants. PBMCs were isolated using a ficoll gradient (density 1.077 g/ml). Approximately 500×10^6 PBMCs were incubated with PE-labeled pHLA-A*02:01 tetramers (Flex-T™ HLA-A*02:01 Monomer UVX van Biolegend) for 30 min at RT. Anti-PE magnetic beads (MACS) were used to pull out pHLA-A*02:01 tetramer-positive cells over a MACS LS column as instructed by the manufacturer (Miltenyi Biotech). T cells were cultured in complete IMDM containing 10% human serum (Sanquin blood facility) and 100 U/ml IL-2 (Proleukine; Novartis). Bulk T cells were stimulated every 2 weeks with a mixture of T cells (106), 1 μg/ml synthetic peptide (SLGDWGAEA (SEQ ID NO: 2) (TIMP3)), irradiated PBMCs (10 cells, 50 Gray), and EBV-JY (10W cells, 75 Gray) in complete T cell culture medium supplemented with 100 U/ml IL-2 in 24-well plates (Costar). Culture medium was replenished every 2-3 d with fresh complete T cell medium.
36 peptides (designated 101 to 136) were selected for their capacity to activate CD8+ T cells present in peripheral blood mononuclear cells (PBMC) of maximal 5 healthy donors, following the protocol described earlier (Marnjt et al., 2018). […]

[3] = tested on: SLGDWGAEA-specific T cell cultures; assay: Tetramer staining of peptide 124-specific T cell cultures; assay type: binding, human; conditions: three T cell cultures, donors 2028, 4409, 2752
Text: T cell cultures of donors 2028, 4409 and 2752 were stimulated with the peptide SLGDWGAEA (SEQ ID NO:2) and analyzed via flow cytometry for the percentage of CD8+ T cells and the percentage therein of CD8+ T cells that stained positive with the HLA-A*02:01 tetramer presenting peptide SLGDWGAEA. All three SLGDWGAEA-specific T cell cultures comprise more than 97% CD8+ T cells that stained for more than 99% positive with SLGDVGAEA-loaded HLA-A*02:01 tetramers (indicated by HLA-A*02:01: SLGDWGAEA™ in FIG. 1). These SLGDWGAEA-specific T cells were used in subsequent experiments described below. In the present application and figures, peptide SLGDWGAEA is also referred to as ‘peptide 124’ or ‘p124’.
Buffy coats from healthy donors were obtained from Sanquin (Sanquin blood facility). Informed consent was given in writing by all participants. PBMCs were isolated using a ficoll gradient (density 1.077 g/ml). Approximately 500×10^6 PBMCs were incubated with PE-labeled pHLA-A*02:01 tetramers (Flex-T™ HLA-A*02:01 Monomer UVX van Biolegend) for 30 min at RT. Anti-PE magnetic beads (MACS) were used to pull out pHLA-A*02:01 tetramer-positive cells over a MACS LS column as instructed by the manufacturer (Miltenyi Biotech). T cells were cultured in complete IMDM containing 10% human serum (Sanquin blood facility) and 100 U/ml IL-2 (Proleukine; Novartis). […]

[4] = tested on: p124-specific CD8 T cells; assay: Stimulation of p124-specific T cells by exogenous short p124 peptide; assay type: cell-based, human; conditions: FIG. 7
Method: The peptide 124-specific T-cell culture from donor 4409 was stimulated with HLA-A*0201 matched monocyte-derived dendritic cells (MoDCs) from three different donors (indicated by MoDCs 0559, MoDC 4553 and MoDC 7401), which were loaded with (10 uM for 20-24h) the indicated synthetic long peptides (SLP) (“p124 long 1” (SEQ ID NO: 22), (“p124 long 2” (SEQ ID NO: 23), (“p124 long 3” (SEQ ID NO: 24)) or with no peptide as background control. The T cell culture incubated with 25 ug/ml the p124-peptide SLGDWGAEA served as positive control for reactivity (indicated by “T cells+p124”). The amount of interferon-gamma (IFNy) or GM-CSF produced is shown on the y-axis in pg/ml.
The synthetic long peptide (SLP) platform is highly immunogenic and successfully applied in therapeutic SLP vaccination for HPV-induced cancers (Kenter et al. 2009; van Poelgeest et al. 2016). Therefore, the inventors examined the efficiency of cross-presentation of long versions of the TIMP3-derived signal peptide SLGDWGAEA (SEQ ID NO: 2) in dendritic cells, using natural flanking amino acids extending the amino-terminus, the carboxy-terminus, or both ends (Table 3). […]

[5] = tested on: SLGDWGAEA-specific T cells; assay: Interferon-gamma production of SLGDWGAEA-specific T cells stimulated with variant peptides pulsed on HLA-A*0201 positive EBV transformed B-cells; assay type: cell-based, human; conditions: for Recognition (IC50): concentration of peptide for half maximal interferon-gamma production of SLGDWGAEA-specific T cells; for response of peptide 124-specific CD8+ T cell culture to variant peptide: short minimal peptides exogenously pulsed on HLA-A*0201 positive EBV transformed B-cells
Text: The inventors investigated if exchanges into another amino acids would result in a more efficiently processed epitope. First, they examined whether these substitutions would interfere with T cell receptor interaction. The inventors exogenously pulsed the short minimal peptides of Table 4 with the C-terminal valine (V), leucine (L), isoleucine (I), or methionine (M) on HLA-A*0201 positive EBV transformed B-cells and measured the activation of the peptide 124-specific CD8+ T cell culture.

## CC[C@H](C)[C@H](N)C(=O)N[C@H](C(=O)N[C@@H](CC(C)C)C(=O)N[C@@H](CC(C)C)C(=O)NCC(=O)N[C@@H](CO)C(=O)N[C@@H](Cc1c[nH]c2ccccc12)C(=O)N[C@@H](CO)C(=O)N[C@@H](CC(C)C)C(=O)NCC(=O)N[C@@H](CC(=O)O)C(=O)N[C@@H](Cc1c[nH]c2ccccc12)C(=O)NCC(=O)N[C@@H](C)C(=O)N[C@@H](CCC(=O)O)C(=O)N[C@@H](C)C(=O)N[C@@H](CS)C(=O)N[C@H](C(=O)N[C@@H](CS)C(=O)N[C@@H](CO)C(=O)N1CCC[C@H]1C(=O)N[C@@H](CO)C(=O)N[C@@H](Cc1c[nH]cn1)C(=O)O)[C@@H](C)O)C(C)C [P124 long 2] (H-IVLLGSWSLGDWGAEACTCSPSH-OH)
[1]
  T cell activation by cross-presented synthetic long peptide (wild type epitope): the T cells were activated

## CC(C)C[C@H](NC(=O)[C@@H](N)CO)C(=O)NCC(=O)N[C@@H](CC(=O)O)C(=O)N[C@@H](Cc1c[nH]c2ccccc12)C(=O)NCC(=O)N[C@@H](C)C(=O)N[C@@H](CCC(=O)O)C(=O)N[C@@H](C)C(=O)N[C@@H](CS)C(=O)N[C@H](C(=O)N[C@@H](CS)C(=O)N[C@@H](CO)C(=O)N1CCC[C@H]1C(=O)N[C@@H](CO)C(=O)N[C@@H](Cc1c[nH]cn1)C(=O)N1CCC[C@H]1C(=O)N[C@@H](CCC(N)=O)C(=O)N[C@@H](CC(=O)O)C(=O)N[C@@H](C)C(=O)N[C@@H](Cc1ccccc1)C(=O)N[C@@H](CS)C(=O)N[C@@H](CC(N)=O)C(=O)O)[C@@H](C)O [P124 long 3] (H-SLGDWGAEACTCSPSHPQDAFCN-OH)
[1]
  T cell activation by cross-presented synthetic long peptide (wild type epitope): No recognition was observed

## CC[C@H](C)[C@H](N)C(=O)N[C@H](C(=O)N[C@@H](CC(C)C)C(=O)N[C@@H](CC(C)C)C(=O)NCC(=O)N[C@@H](CO)C(=O)N[C@@H](Cc1c[nH]c2ccccc12)C(=O)N[C@@H](CO)C(=O)N[C@@H](CC(C)C)C(=O)NCC(=O)N[C@@H](CC(=O)O)C(=O)N[C@@H](Cc1c[nH]c2ccccc12)C(=O)NCC(=O)N[C@@H](C)C(=O)N[C@@H](CCC(=O)O)C(=O)N[C@H](C(=O)N[C@@H](CS)C(=O)N[C@H](C(=O)N[C@@H](CS)C(=O)N[C@@H](CO)C(=O)N1CCC[C@H]1C(=O)N[C@@H](CO)C(=O)N[C@@H](Cc1c[nH]cn1)C(=O)O)[C@@H](C)O)C(C)C)C(C)C [P124 long V2] (H-IVLLGSWSLGDWGAEVCTCSPSH-OH)
[1]
  cross-presentation of synthetic long peptide (V-variant epitope): cross-presentation was lost

## FLGPWPAAS [peptide 105, FLGPWPAAS, reference compound]
TAP-negative tumor cells
  recognition pattern of the stimulated T cell culture (classified as TEIPP): consistent recognition pattern

## LGLIVLLGSWSLGDWGAEV [P124 long V1-4, LGLIVLLGSWSLGDWGAEV]
[1]
  cross-presentation of synthetic long peptide (V-variant epitope): enhanced T cell stimulation and more efficient cross-presentation

## LIVLLGSWSLGDWGAEV [P124 long V1-6, LIVLLGSWSLGDWGAEV]
[1]
  cross-presentation of synthetic long peptide (V-variant epitope): enhanced T cell stimulation and more efficient cross-presentation

## MTPWLGLIVLLGSWSLGDWGAEA [P124 long 1]
[1]
  T cell activation by cross-presented synthetic long peptide (wild type epitope): the T cells were activated

## SLGDWGAEA [SLGDWGAEA]
[2]
  donors with outgrowth of p124-specific T cells: 10 donors
[3]
  CD8+ T cells stained positive with SLGDWGAEA-loaded HLA-A*02:01 tetramers: more than 99%
[3]; listed as peptide 124
  CD8+ T cells stained positive with SLGDWGAEA-loaded HLA-A*02:01 tetramers: > 99%
[4]
  T cell stimulation by exogenous pulsing of short peptide: stimulated the T cells
TAP-negative tumor cells
  recognition pattern of the stimulated T cell culture (classified as TEIPP): consistent recognition pattern
[5]; Table 1
  Recognition (IC50): 0.092525 µg/mL
[5]; Table 4
  Recognition (IC50): 0.092525 µg/mL

## SLGDWGAEI [SLGDWGAEI]
[5]; Table 1
  Recognition (IC50): 0.284929 µg/mL
[5]; Table 4
  Recognition (IC50): 0.284929 µg/mL

## SLGDWGAEL [SLGDWGAEL]
[5]
  response of peptide 124-specific CD8+ T cell culture to variant peptide: No response was observed

## SLGDWGAEM [SLGDWGAEM]
[5]
  response of peptide 124-specific CD8+ T cell culture to variant peptide: No response was observed

## SLGDWGAEV [SLGDWGAEV]
[5]; Table 1
  Recognition (IC50): 0.001471 µg/mL
[5]; Table 4
  Recognition (IC50): 0.001471 µg/mL
[5]; specifically at the lower peptide concentration range
  improvement of the stimulation of p124-specific T cells vs. c-terminal alanine peptide: 61 fold

## WLGLIVLLGSWSLGDWGAEV [P124 long V1-3]
[1]
  cross-presentation of synthetic long peptide (V-variant epitope): less optimal
